According to patent US20250154169A1, “COMPOUNDS AND METHODS FOR MODULATING SPLICING” (REMIX THERAPEUTICS INC., priority 2021, published 2025):
Where two headings read alike, the source gives them in different places.

Tests used:
Format in all cases: cell-based, human
MYB mRNA = test: Splicing RT-qPCR assay, MYB canonical (CJ) and alternative (AJ) junction mRNA; conditions: Homo sapiens
Method in brief: (§1)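 Read-out is the abundance of canonical-junction versus new alternative-exon-junction mRNA, determined by real-time qPCR after cDNA synthesis and normalized to a housekeeping gene. It is measured in A673 or K562 cells exposed to compounds for 24 h, top dose 10 uM.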

Target C mRNA = test: Splicing RT-qPCR gene panel, Target C canonical junction (CJ) mRNA; conditions: Homo sapiens, Tables 4A/4B, read-out: Target C (IC50, decrease in CJ mRNA, gene panel)
Method in brief: (§2)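 A673/K562, 24 h cpd, 11-pt 3-fold from 10 uM, DMSO ≤0.25%. Lysis, direct RT-qPCR of CJ isoform, ≥duplicate. GAPDH/GUSB/PPIA norm, ΔΔCt vs DMSO → RQ → % response.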

SMN2 mRNA = test: Splicing RT-qPCR gene panel, SMN2 canonical junction (CJ) mRNA; conditions: Homo sapiens, Tables 4A/4B, read-out: SMN2 (IC50, decrease in CJ mRNA, gene panel)
Method in brief: as §2

HTT mRNA [1] = test: Splicing RT-qPCR assay, HTT canonical (CJ) and alternative (AJ) junction mRNA; conditions: Homo sapiens
Method in brief: as §1

HTT mRNA [2] = test: Splicing RT-qPCR gene panel, HTT canonical junction (CJ) mRNA; conditions: Homo sapiens, Tables 4A/4B, read-out: HTT (IC50, decrease in CJ mRNA, gene panel)
Method in brief: as §2

[3] = 24 h, A673 or K562 cells, 24 hours compound treatment, RT-qPCR, read-out: MYB AJ (AC50, increase in alternative junction mRNA)
[4] = 24 h, A673 or K562 cells, 24 hours compound treatment, RT-qPCR, read-out: MYB CJ (IC50, decrease in canonical junction mRNA)
[5] = Tables 4A/4B, canonical junction qPCR panel, read-out: MYB (IC50, decrease in CJ mRNA, gene panel)
[6] = 24 h, A673 or K562 cells, 24 hours compound treatment, read-out: HTT CJ (IC50, decrease in canonical junction mRNA)
[7] = A673 or K562 cells, 24 hours compound treatment, read-out: HTT AJ (AC50, increase in alternative junction mRNA)

SMILES | IC50 (MYB mRNA; [4]) [nM] | IC50 (MYB mRNA; [5]) [nM] | IC50 (Target C mRNA) [nM] | IC50 (SMN2 mRNA) [nM] | IC50 (HTT mRNA [1]; [6]) [nM] | IC50 (HTT mRNA [2]) [nM] | IC50 (MYB mRNA; Table 3B, canonical junction mRNA, RT-qPCR, read-out: MYB CJ (IC50, decrease in CJ mRNA)) [nM] | IC50 (HTT mRNA [1]; Table 3B, canonical junction mRNA, read-out: HTT CJ (IC50, decrease in CJ mRNA)) [nM] | AC50 (MYB mRNA; [3]) [nM] | AC50 (HTT mRNA [1]; [7]) [nM] | AC50 (MYB mRNA; Table 3B, alternative junction mRNA, RT-qPCR, read-out: MYB AJ (AC50, increase in AJ mRNA)) [nM] | AC50 (HTT mRNA [1]; Table 3B, alternative junction mRNA, read-out: HTT AJ (AC50, increase in AJ mRNA)) [nM]
Cc1cn2cc(NC(=O)c3ccc(N4CCNCC4)c4cn(CC56CC(O)(C5)C6)nc34)cc(F)c2n1 [Compound 414, N-{8-fluoro-2-methylimidazo[1,2-a]pyridin-6-yl}-2-({3-hydroxybicyclo[1.1.1]pentan-1-yl}methyl)-4-(piperazin-1-yl) indazole-7-carboxamide 2,2,2-trifluoroacetate] | 1000 to 10000 | 1000 to 10000 | > 10000 | 1000 to 10000 | > 10000 | > 10000 | – | – | 1000 to 10000 | > 10000 | – | –
CCNC1CCN(c2ccc(C(=O)Nc3cc(F)c4nc(C)cn4c3)c3nc(CC)sc23)C1 (stereo not shown) [Compound 944] | – | 100 to 1000 | 1000 to 10000 | < 100 | – | 1000 to 10000 | 100 to 1000 | 1000 to 10000 | – | – | 100 to 1000 | 1000 to 10000
COc1c(NC(=O)c2ccc(N3CCNCC3)c3cn(C)nc23)cn2cc(C)nc2c1F [Compound 343, N-{8-fluoro-7-methoxy-2-methylimidazo[1,2-a]pyridin-6-yl}-2-methyl-4-(piperazin-1-yl) indazole-7-carboxamide] | < 100 | < 100 | 100 to 1000 | < 100 | < 100 | < 100 | – | – | < 100 | < 100 | – | –
Cc1cn2cc(NC(=O)c3ccc(N4CCNCC4)c4c[nH]nc34)cc(Cl)c2n1 [Compound 286] | 100 to 1000 | 100 to 1000 | > 10000 | 100 to 1000 | > 10000 | > 10000 | – | – | 1000 to 10000 | > 10000 | – | –

Second part, led by results:

IC50 (MYB mRNA; [4]) [nM] | IC50 (MYB mRNA; [5]) [nM] | IC50 (Target C mRNA) [nM] | IC50 (SMN2 mRNA) [nM] | IC50 (HTT mRNA [1]; [6]) [nM] | IC50 (HTT mRNA [2]) [nM] | IC50 (MYB mRNA; Table 3B, canonical junction mRNA, RT-qPCR, read-out: MYB CJ (IC50, decrease in CJ mRNA)) [nM] | IC50 (HTT mRNA [1]; Table 3B, canonical junction mRNA, read-out: HTT CJ (IC50, decrease in CJ mRNA)) [nM] | SMILES | AC50 (MYB mRNA; [3]) [nM] | AC50 (HTT mRNA [1]; [7]) [nM] | AC50 (MYB mRNA; Table 3B, alternative junction mRNA, RT-qPCR, read-out: MYB AJ (AC50, increase in AJ mRNA)) [nM] | AC50 (HTT mRNA [1]; Table 3B, alternative junction mRNA, read-out: HTT AJ (AC50, increase in AJ mRNA)) [nM]
> 10000 | > 10000 | > 10000 | 1000 to 10000 | > 10000 | > 10000 | – | – | Cc1cn2nc(NC(=O)c3ccc(N4CCNCC4)c4cn(C)nc34)nc2c(C)n1 [Compound 253] | > 10000 | > 10000 | – | –
100 to 1000 | 100 to 1000 | > 10000 | < 100 | 1000 to 10000 | 1000 to 10000 | – | – | Cc1cn2cc(NC(=O)c3ccc(N4CCNCC4)c4cn(C)nc34)cc(C(F)(F)F)c2n1 [Compound 275, 2-methyl-N-[2-methyl-8-(trifluoromethyl)imidazo[1,2-a]pyridin-6-yl]-4-(piperazin-1-yl) indazole-7-carboxamide] | < 100 | 1000 to 10000 | – | –
100 to 1000 | 100 to 1000 | 1000 to 10000 | < 100 | 1000 to 10000 | 1000 to 10000 | – | – | Cc1cn2cc(NC(=O)c3ccc(N4CCC(N(C)C)C4)c4cn(C)nc34)cc(Cl)c2n1 (stereo not shown) [Compound 278] | < 100 | 1000 to 10000 | – | –
100 to 1000 | 100 to 1000 | 1000 to 10000 | < 100 | 1000 to 10000 | 1000 to 10000 | – | – | CCCCn1cc2c(N3CCNCC3)ccc(C(=O)Nc3cc(F)c4nc(C)cn4c3)c2n1 [Compound 312, 2-butyl-N-{8-fluoro-2-methylimidazo[1,2-a]pyridin-6-yl}-4-(piperazin-1-yl)indazole-7-carboxamide] | < 100 | 1000 to 10000 | – | –
